Measurements published in a melting point compilation (Tetko et al.; mined from patent text by program, amines drawn as free bases though some values may be those of a salt).

Question: With c1ccc(C(c2ccccc2)N2C(=NCCCn3ccnc3)c3cccc4cccc2c34)cc1 as the molecule, how does the melting point read?
Answer: Its melting point is 142 to 143 °C.

Question: For Cc1cc(-n2ccnc2)c2cccc(OCc3c(Cl)ccc(S(=O)(=O)N4CCC[C@H]4C(=O)NCC4CCN(CCC(=O)O)CC4)c3Cl)c2n1, which melting point is on record?
Answer: Its melting point is 140 °C.

Question: For ON=C(c1ccc(O)c(Cl)c1Cl)c1cccc2ccccc12, which melting point is on record?
Answer: Its melting point is 145 to 160 °C.

Question: With CC(=O)c1c(N(C)C)c(-c2ccccc2)n(Cc2ccccc2Cl)c1C as the molecule, how does the melting point read?
Answer: Its melting point is 103 to 105 °C.

Question: With CCS(=O)(=O)c1cc(C(=O)NCC2CCCN2CC2CCCC2)c(OC)cc1N (stereo not given) as the molecule, how does the melting point read?
Answer: Its melting point is 140 to 141 °C.

Question: For CC(=O)NCc1c(C)cc(CN2CCN(c3ccccc3)CC2)cc1C, which melting point is on record?
Answer: Its melting point is 159 to 160 °C.

Question: Which melting point does the source give for COc1cc2c(cc1OCc1ccccc1)C(O)CN(Cc1cc(OC)c(OC)c(OC)c1)C2 (stereo not given) here?
Answer: The melting point was 126 to 127 °C.

Question: For Cc1cc(-c2ccc(Cl)cc2)nc2c(C(=O)O)cnn12, which melting point is on record?
Answer: Its melting point is 233 to 235 °C.

Question: For COC(COc1ccc(Br)c(C)c1C)OC, which melting point is on record?
Answer: Its melting point is 40 to 41 °C.

Question: For COC(=O)CCC(=O)c1ccc(N)cc1, which melting point is on record?
Answer: Its melting point is 160 to 162 °C.

Question: For O=S(=O)(Nc1cccc(CC2Cc3ccc(OCc4nc5cc(F)c(F)cc5s4)cc3C2O)c1)C(F)(F)F (stereo not given), which melting point is on record?
Answer: The melting point was 170 to 172 °C.

Question: Which melting point does the source give for Nc1cc(CCC(=O)NC23CC4CC(CC(C4)C2)C3)ccc1O here?
Answer: The melting point was 79 to 80 °C.

Question: For O=c1c(-c2ccccc2)c(CNc2ncnc3[nH]cnc23)oc2ccc(F)cc12, which melting point is on record?
Answer: Its melting point is 183 to 186 °C.

Question: For NC(=O)CCCCCCCCCCC(Cl)(Cl)C(=O)O, which melting point is on record?
Answer: Its melting point is 93 to 94 °C.

Question: With Cc1nn(-c2cc(O)c(Cl)cc2F)c(=O)n1C(F)F as the molecule, how does the melting point read?
Answer: Its melting point is 147 to 152 °C.

Question: Which melting point does the source give for Clc1nn2nnnc2c2c1CCCC2 here?
Answer: Its melting point is 109 to 110 °C.

Question: For CC1(C)Oc2ccc(C#N)cc2[C@@H](N2CC(OCc3ccccc3)=CC2=O)[C@@H]1O (relative stereo), which melting point is on record?
Answer: Its melting point is 248 °C.

Question: Which melting point does the source give for O=c1c(Cl)c(C(F)(F)F)nc(Nc2cc(C(F)(F)F)ccc2C(F)(F)F)n1C1CCCCC1 here?
Answer: The melting point was 181 to 183 °C.

Question: For CC(=O)OC1CSC(Oc2cccc(-c3ccc(C)cn3)c2)C(OC(C)=O)C1OC(C)=O (stereo not given), which melting point is on record?
Answer: Its melting point is 140 °C.

Question: Which melting point does the source give for CCCN1CCC(C(=O)Nc2ccc(CN(C)C3CCOCC3)cc2)=Cc2cc(-c3ccc(N4CCOCC4)cc3)ccc21 here?
Answer: Its melting point is 114 to 118 °C.

Question: With CC(=O)NCCNC(=O)Nc1ccc(-c2c[nH]c(=O)cn2)cc1 as the molecule, how does the melting point read?
Answer: Its melting point is 238 to 244 °C.

Question: With O=C(O)C=Cc1ccc(-c2ccc(-c3cccs3)s2)s1 as the molecule, how does the melting point read?
Answer: Its melting point is 220 to 225 °C.

Question: For CC(C)(CCCCCCCC(=O)CCCCCCCC(C)(C)C(=O)O)C(=O)O, which melting point is on record?
Answer: Its melting point is 74 to 77 °C.

Question: With CC1(C)C(C=C(C#N)c2ccccc2)C1C(=O)O (stereo not given) as the molecule, how does the melting point read?
Answer: Its melting point is 186 to 188 °C.

Question: With O=[N+]([O-])c1ccc(NCCC23CCCN2CCC3)c2ccccc12 as the molecule, how does the melting point read?
Answer: The melting point was 90 to 91 °C.

Question: Which melting point does the source give for CCOC(=O)c1cn(C2CC2)c2c(OC(F)F)c(F)c(F)c(N)c2c1=O here?
Answer: Its melting point is 295 to 296 °C.

Question: Which melting point does the source give for CN(C)Cc1cc2c(cc1O)CCC1C2CCC2(C)C(=O)CCC12 (stereo not given) here?
Answer: Its melting point is 172 to 173 °C.

Question: Which melting point does the source give for Cc1ccc(-c2nc3cccnc3n2CC(=O)O)s1 here?
Answer: The melting point was greater than 250 °C.

Question: Which melting point does the source give for COc1ccc(C(=O)Nc2cccnc2)cc1NC(=S)Nc1cccc(C(=O)O)c1 here?
Answer: The melting point was 191 to 192 °C.

Question: For CCOC(=O)C(CC)Sc1nc2c(c(=O)[nH]c(=O)n2C)n1Cc1cccc(N)c1 (stereo not given), which melting point is on record?
Answer: Its melting point is 107 °C.

Question: For CCN1C(=O)CC(=O)N(c2ccccc2)c2cc(Cl)ccc21, which melting point is on record?
Answer: The melting point was 220 to 222 °C.

Question: With CS(=O)(=O)Oc1ccc(N2CC(COc3ccc(C(=O)O)cc3)CC2=O)cc1 (stereo not given) as the molecule, how does the melting point read?
Answer: The melting point was 199 to 201 °C.

Question: For COCCOc1cc(NC(=O)OC(C)(C)C)c([N+](=O)[O-])cc1C#Cc1ccccc1, which melting point is on record?
Answer: The melting point was 118 to 119 °C.

Question: Which melting point does the source give for CCCn1cnc2c1c(=O)n(CCCC(C)(O)C#CCN1CCN(C)CC1)c(=O)n2C (stereo not given) here?
Answer: Its melting point is 168 °C.

Question: With CC1Cc2c(occ(C=O)c2=O)-c2ccccc21 (stereo not given) as the molecule, how does the melting point read?
Answer: The melting point was 146 to 148 °C.

Question: For CC(C)c1cccc(C(C)C)c1NC(=O)C1CC2=C(CCCCCCCCCC2)C1=O (stereo not given), which melting point is on record?
Answer: The melting point was 225 to 229 °C.

Question: For OC[C@H](O)CSc1ccccc1, which melting point is on record?
Answer: Its melting point is 79 to 81 °C.

Question: With CSc1ccc(-c2c(NN)nc(Cl)nc2-c2ccccc2)cc1 as the molecule, how does the melting point read?
Answer: Its melting point is 272 to 274 °C.

Question: For Cc1cc(Cl)c(-n2nc(C#N)c(-c3ccco3)c2N)c(Cl)c1, which melting point is on record?
Answer: Its melting point is 192 °C.

Question: For COC(=O)c1ccc(COc2ccc3c(c2)CCN(C2CCN(C4CCC4)CC2)C3=O)cc1, which melting point is on record?
Answer: Its melting point is 165 to 166 °C.

Question: With CCC(=O)Oc1ccc(/C(=C(/CC)c2ccccc2)c2ccc(/C=C/C(=O)O)cc2)cc1 as the molecule, how does the melting point read?
Answer: The melting point was 158 to 160 °C.

Question: Which melting point does the source give for c1ccc2cc3[nH]c(SCc4ncc[nH]4)nc3cc2c1 here?
Answer: Its melting point is 172 °C.

Question: For CC1(C)C[C@@H](n2c(=O)c(Cl)nc3ccccc32)c2cc(C#N)ccc2O1, which melting point is on record?
Answer: The melting point was 174 to 176 °C.

Question: With O=C(NC(=O)c1ccc2ncccc2c1)NC1CCN(Cc2ccc3cc(F)ccc3c2)CC1 as the molecule, how does the melting point read?
Answer: The melting point was 200 to 201 °C.

Question: With COc1ccc(Cn2c(O)nc3c(-c4ccco4)ncnc32)cc1 as the molecule, how does the melting point read?
Answer: The melting point was 143 to 144 °C.

Question: With O=c1[nH]c2c(c(O)c1[N+](=O)[O-])CCCCC2 as the molecule, how does the melting point read?
Answer: Its melting point is greater than 264 °C.

Question: With Cc1ccc(Cc2nc3cc(Cl)c(S(N)(=O)=O)cc3[nH]2)cc1 as the molecule, how does the melting point read?
Answer: The melting point was 214 to 217 °C.

Question: For CCOC(=O)Nc1ccc(OC)cc1[N+](=O)[O-], which melting point is on record?
Answer: Its melting point is 56 to 57 °C.

Question: With COc1c(-c2ccc(O)c(O)c2)oc2cc(O)ccc2c1=O as the molecule, how does the melting point read?
Answer: Its melting point is 281 °C.

Question: Which melting point does the source give for COC(=O)c1ccc2cc(CCC=O)oc2c1 here?
Answer: Its melting point is 57 to 58 °C.
